Test: xn = mol fraction of the nth substance listed

CCCCN + CO
viscosity [mPa·s]
Conditions | 298.15 K | 303.15 K | 313.15 K | 323.15 K
100 kPa, x2 = 0.1 | 0.505 | – | – | –
100 kPa, x2 = 0.203 | 0.552 | – | – | –
100 kPa, x2 = 0.299 | 0.599 | – | – | –
100 kPa, x2 = 0.399 | 0.653 | – | – | –
100 kPa, x2 = 0.501 | 0.707 | – | – | –
100 kPa, x2 = 0.598 | 0.747 | – | – | –
100 kPa, x2 = 0.697 | 0.761 | – | – | –
100 kPa, x2 = 0.796 | 0.732 | – | – | –
100 kPa, x2 = 0.9 | 0.65 | – | – | –
101 kPa, x2 = 0.1159 | – | 0.47 | 0.409 | 0.357
101 kPa, x2 = 0.2309 | – | 0.494 | 0.425 | 0.369
101 kPa, x2 = 0.3289 | – | 0.518 | 0.439 | 0.377
101 kPa, x2 = 0.426 | – | 0.549 | 0.458 | 0.386
101 kPa, x2 = 0.5325 | – | 0.584 | 0.482 | 0.397
101 kPa, x2 = 0.6186 | – | 0.607 | 0.498 | 0.405
101 kPa, x2 = 0.7296 | – | 0.617 | 0.508 | 0.411
101 kPa, x2 = 0.8167 | – | 0.602 | 0.502 | 0.41
101 kPa, x2 = 0.9076 | – | 0.562 | 0.481 | 0.408

CC[N+](=O)[O-] + CO
viscosity [mPa·s], 101.33 kPa
Conditions | 293.15 K | 303.15 K | 313.15 K
x2 = 0.0501 | 0.657 | 0.586 | 0.527
x2 = 0.0999 | 0.634 | 0.565 | 0.508
x2 = 0.1503 | 0.617 | 0.549 | 0.493
x2 = 0.2 | 0.603 | 0.536 | 0.48
x2 = 0.25 | 0.593 | 0.526 | 0.471
x2 = 0.3 | 0.584 | 0.517 | 0.462
x2 = 0.3501 | 0.576 | 0.51 | 0.455
x2 = 0.4 | 0.57 | 0.504 | 0.448
x2 = 0.45 | 0.564 | 0.498 | 0.442
x2 = 0.5 | 0.559 | 0.493 | 0.438
x2 = 0.55 | 0.556 | 0.489 | 0.433
x2 = 0.6 | 0.553 | 0.487 | 0.43
x2 = 0.65 | 0.552 | 0.485 | 0.428
x2 = 0.6999 | 0.552 | 0.486 | 0.428
x2 = 0.75 | 0.555 | 0.486 | 0.427
x2 = 0.8 | 0.558 | 0.487 | 0.428
x2 = 0.85 | 0.562 | 0.49 | 0.43
x2 = 0.9 | 0.567 | 0.495 | 0.434
x2 = 0.95 | 0.576 | 0.501 | 0.437

CCn1ccnc1 + CO
viscosity [mPa·s], 101 kPa
Conditions | 298.15 K | 308.15 K | 318.15 K
x1 = 0.0461 | 0.654 | 0.5768 | 0.5141
x1 = 0.1003 | 0.7495 | 0.6547 | 0.5802
x1 = 0.2389 | 1.012 | 0.8673 | 0.7489
x1 = 0.3039 | 1.133 | 0.967 | 0.8304
x1 = 0.3938 | 1.285 | 1.085 | 0.9324
x1 = 0.4588 | 1.383 | 1.163 | 0.9927
x1 = 0.5724 | 1.525 | 1.275 | 1.085
x1 = 0.7001 | 1.669 | 1.388 | 1.177
x1 = 0.794 | 1.766 | 1.467 | 1.24
x1 = 0.8988 | 1.861 | 1.536 | 1.296
x1 = 0.9431 | 1.89 | 1.56 | 1.316

Cc1ccncc1 + CO
298.15 K, 101.33 kPa
Conditions | viscosity [mPa·s]
x2 = 0.1671 | 0.8666
x2 = 0.3035 | 0.8547
x2 = 0.4194 | 0.8291
x2 = 0.5171 | 0.8161
x2 = 0.6328 | 0.7764
x2 = 0.7977 | 0.7033
x2 = 0.8892 | 0.6526
x2 = 0.967 | 0.5799

c1cc2c3c(cccc3c1)CC2 + CO
viscosity [mPa·s], 101.33 kPa
Conditions | 298.15 K | 303.15 K | 308.15 K | 313.15 K | 318.15 K
x1 = 0.00465 | 0.5715 | 0.5301 | 0.494 | 0.4598 | 0.436
x1 = 0.0072 | – | 0.5362 | 0.5036 | 0.4714 | 0.4405

CCCCN + COC(C)=O
303.15 K, 101 kPa
Conditions | viscosity [mPa·s]
x1 = 0.1441 | 0.4159
x1 = 0.2526 | 0.4351
x1 = 0.35 | 0.4469
x1 = 0.454 | 0.4552
x1 = 0.5721 | 0.458
x1 = 0.686 | 0.4596
x1 = 0.7578 | 0.4709
x1 = 0.8757 | 0.4985

CCCCN + COCCO
308.15 K, 101 kPa
Conditions | viscosity [mPa·s]
x2 = 0.1234 | 0.5285
x2 = 0.2404 | 0.6274
x2 = 0.3516 | 0.7219
x2 = 0.4576 | 0.8199
x2 = 0.5606 | 0.9142
x2 = 0.6503 | 0.9868
x2 = 0.7471 | 1.048
x2 = 0.8351 | 1.111
x2 = 0.9193 | 1.173

CN + CS(C)=O
303.15 K, 101 kPa
Conditions | viscosity [mPa·s]
x2 = 0.0607 | 1.738
x2 = 0.12 | 1.823
x2 = 0.2348 | 1.891
x2 = 0.4501 | 2.172
x2 = 0.6481 | 2.077
x2 = 0.8308 | 1.895

O=C(O)C(Cl)(Cl)Cl + C[N+](C)(C)CCO.[Cl-]
101 kPa, x2 = 0.333
Conditions | viscosity [mPa·s]
293.15 K | 645.9
298.15 K | 435
303.15 K | 302.5
308.15 K | 216.1
313.15 K | 158.7
318.15 K | 119.2
323.15 K | 91.41

O=C(O)[C@H](O)[C@@H](O)C(=O)O + C[N+](C)(C)CCO.[Cl-]
viscosity [mPa·s]
Conditions | 303 K | 313 K | 313.2 K | 323 K
101 kPa, x2 = 0.5 | 1281000 | 240000 | – | 73300
101.3 kPa, x2 = 0.669 | – | – | 6790 | –

CC[N+](=O)[O-] + Cc1cc(C)cc(C)c1
293.15 K, 101.33 kPa
Conditions | viscosity [mPa·s]
x1 = 0.0912 | 0.69
x1 = 0.1908 | 0.685
x1 = 0.2974 | 0.68
x1 = 0.3871 | 0.675
x1 = 0.5179 | 0.669
x1 = 0.6112 | 0.665
x1 = 0.6912 | 0.665
x1 = 0.7813 | 0.669
x1 = 0.8874 | 0.671

CCCCN + Cc1ccc(C)cc1
303.15 K, 101 kPa
Conditions | viscosity [mPa·s]
x1 = 0.0795 | 0.545
x1 = 0.1507 | 0.53
x1 = 0.2545 | 0.511
x1 = 0.3628 | 0.494
x1 = 0.4612 | 0.481
x1 = 0.5562 | 0.471
x1 = 0.6469 | 0.464
x1 = 0.7338 | 0.457
x1 = 0.8144 | 0.451
x1 = 0.8979 | 0.448
x1 = 0.9456 | 0.444

CC[N+](=O)[O-] + Cc1ccc(C)cc1
293.15 K, 101.33 kPa
Conditions | viscosity [mPa·s]
x1 = 0.0968 | 0.633
x1 = 0.1917 | 0.629
x1 = 0.3 | 0.627
x1 = 0.4039 | 0.626
x1 = 0.4933 | 0.626
x1 = 0.6083 | 0.629
x1 = 0.6994 | 0.633
x1 = 0.7938 | 0.644
x1 = 0.9011 | 0.66

From the CheMixHub viscosity set
